# Earlier results, collected in patent US10640803B2, “Methods for determining chemosensitivity and chemotoxicity” (priority 2013, dated 2020).
# Test system: CLL patients
# Settings: caused the halt of the study
compound,measurement,value
CC1(C)CCC(c2ccc(Cl)cc2)=C(CN2CCN(c3ccc(C(=O)NS(=O)(=O)c4ccc(N[C@H](CCN5CCOCC5)CSc5ccccc5)c(S(=O)(=O)C(F)(F)F)c4)cc3)CC2)C1 [ABT-263],adverse event in the study,occurrence of tumor lysis syndrome
